Laboratory results as given in PMC11167047 (Cell Death Discovery, 2024).

Experiments:
Assay in all cases: kinome screen (33PanQinase)
Assay type in all cases: biochemical
[1] = biological target: T1, WNK1 (Homo sapiens, UniProt Q9H4A3)
T1 construct: purchased Reaction Biology Europe GmbH (formerly ProQinase)
Protocol: (§1) The Kinome Screening was performed by Reaction Biology Europe GmbH (http://reactionbiology.com; Freiburg i. Br., Germany).

[2] = biological target: T2, MAP3K1 (Homo sapiens, UniProt Q13233)
T2 construct: purchased Reaction Biology Europe GmbH (formerly ProQinase)
Protocol: as §1

[3] = biological target: T3, PBK (Homo sapiens, UniProt Q96KB5)
T3 construct: purchased Reaction Biology Europe GmbH (formerly ProQinase)
T3 sequence (Q96KB5 1-322): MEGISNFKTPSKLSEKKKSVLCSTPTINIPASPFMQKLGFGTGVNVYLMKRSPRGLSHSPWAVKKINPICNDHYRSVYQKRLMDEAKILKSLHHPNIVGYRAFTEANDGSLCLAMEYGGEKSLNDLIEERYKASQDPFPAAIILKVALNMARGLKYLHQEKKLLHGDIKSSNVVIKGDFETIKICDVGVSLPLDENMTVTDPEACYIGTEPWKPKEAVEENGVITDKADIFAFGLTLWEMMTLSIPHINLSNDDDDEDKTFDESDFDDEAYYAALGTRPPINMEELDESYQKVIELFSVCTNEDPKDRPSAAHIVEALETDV
Protocol: as §1

[4] = biological target: T4, STK23 (Homo sapiens, UniProt Q9UPE1)
T4 construct: purchased Reaction Biology Europe GmbH (formerly ProQinase)
Protocol: as §1

[5] = biological target: T5, MERTK (Homo sapiens, UniProt Q12866)
T5 construct: purchased Reaction Biology Europe GmbH (formerly ProQinase)
T5 sequence (Q12866 21-999): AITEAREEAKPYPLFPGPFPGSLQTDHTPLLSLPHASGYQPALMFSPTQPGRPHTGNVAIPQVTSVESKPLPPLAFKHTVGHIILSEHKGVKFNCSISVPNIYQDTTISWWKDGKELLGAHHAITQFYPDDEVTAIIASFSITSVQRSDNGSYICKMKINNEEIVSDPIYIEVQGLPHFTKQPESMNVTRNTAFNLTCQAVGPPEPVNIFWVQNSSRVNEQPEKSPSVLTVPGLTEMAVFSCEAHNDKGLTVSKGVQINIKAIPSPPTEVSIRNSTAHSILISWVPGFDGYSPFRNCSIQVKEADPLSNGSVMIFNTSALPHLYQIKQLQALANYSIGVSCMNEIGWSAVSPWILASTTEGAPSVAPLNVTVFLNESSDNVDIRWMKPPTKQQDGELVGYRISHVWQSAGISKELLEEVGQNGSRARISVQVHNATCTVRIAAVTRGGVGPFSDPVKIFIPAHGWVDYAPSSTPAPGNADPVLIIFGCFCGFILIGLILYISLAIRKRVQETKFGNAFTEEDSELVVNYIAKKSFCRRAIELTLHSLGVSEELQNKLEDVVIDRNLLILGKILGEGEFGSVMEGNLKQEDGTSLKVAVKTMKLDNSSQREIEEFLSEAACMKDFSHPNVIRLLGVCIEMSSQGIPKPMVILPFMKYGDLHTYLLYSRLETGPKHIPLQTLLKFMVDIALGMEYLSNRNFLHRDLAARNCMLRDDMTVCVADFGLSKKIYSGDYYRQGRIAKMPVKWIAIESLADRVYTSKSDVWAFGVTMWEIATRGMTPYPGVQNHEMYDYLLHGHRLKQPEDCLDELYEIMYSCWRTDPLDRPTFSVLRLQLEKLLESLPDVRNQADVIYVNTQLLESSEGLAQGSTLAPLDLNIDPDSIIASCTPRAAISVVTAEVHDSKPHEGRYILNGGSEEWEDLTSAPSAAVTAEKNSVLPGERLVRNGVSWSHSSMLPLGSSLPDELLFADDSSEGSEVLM
Protocol: as §1

[6] = biological target: T6, EPHA3 (Homo sapiens, UniProt P29320)
T6 construct: purchased Reaction Biology Europe GmbH (formerly ProQinase)
T6 sequence (P29320 21-983): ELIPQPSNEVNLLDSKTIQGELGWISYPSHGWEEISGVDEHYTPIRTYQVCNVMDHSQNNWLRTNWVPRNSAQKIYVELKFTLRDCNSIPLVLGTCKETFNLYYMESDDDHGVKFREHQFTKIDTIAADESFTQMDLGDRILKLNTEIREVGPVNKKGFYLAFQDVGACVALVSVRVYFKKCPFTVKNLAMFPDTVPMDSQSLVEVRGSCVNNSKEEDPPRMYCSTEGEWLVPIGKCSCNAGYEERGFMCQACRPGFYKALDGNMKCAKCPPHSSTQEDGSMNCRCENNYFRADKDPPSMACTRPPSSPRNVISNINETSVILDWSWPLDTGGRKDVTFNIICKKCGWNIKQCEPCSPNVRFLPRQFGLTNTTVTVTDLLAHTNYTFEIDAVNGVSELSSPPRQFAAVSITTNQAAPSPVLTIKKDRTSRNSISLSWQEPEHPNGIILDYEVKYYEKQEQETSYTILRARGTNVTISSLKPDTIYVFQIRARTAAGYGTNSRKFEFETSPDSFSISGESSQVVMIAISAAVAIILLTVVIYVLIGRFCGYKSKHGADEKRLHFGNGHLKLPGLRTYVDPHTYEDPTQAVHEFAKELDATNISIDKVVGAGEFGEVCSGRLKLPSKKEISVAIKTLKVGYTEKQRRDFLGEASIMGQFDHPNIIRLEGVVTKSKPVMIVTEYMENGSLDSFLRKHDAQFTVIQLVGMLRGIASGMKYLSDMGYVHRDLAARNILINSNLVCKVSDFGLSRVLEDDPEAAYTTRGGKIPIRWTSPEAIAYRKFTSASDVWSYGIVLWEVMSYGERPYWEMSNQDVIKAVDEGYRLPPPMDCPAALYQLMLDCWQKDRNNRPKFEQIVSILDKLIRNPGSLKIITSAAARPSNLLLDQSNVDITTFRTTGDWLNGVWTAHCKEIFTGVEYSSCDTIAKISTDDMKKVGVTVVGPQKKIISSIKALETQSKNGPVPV
Protocol: as §1

T1 sequence (Q9H4A3 whole entry): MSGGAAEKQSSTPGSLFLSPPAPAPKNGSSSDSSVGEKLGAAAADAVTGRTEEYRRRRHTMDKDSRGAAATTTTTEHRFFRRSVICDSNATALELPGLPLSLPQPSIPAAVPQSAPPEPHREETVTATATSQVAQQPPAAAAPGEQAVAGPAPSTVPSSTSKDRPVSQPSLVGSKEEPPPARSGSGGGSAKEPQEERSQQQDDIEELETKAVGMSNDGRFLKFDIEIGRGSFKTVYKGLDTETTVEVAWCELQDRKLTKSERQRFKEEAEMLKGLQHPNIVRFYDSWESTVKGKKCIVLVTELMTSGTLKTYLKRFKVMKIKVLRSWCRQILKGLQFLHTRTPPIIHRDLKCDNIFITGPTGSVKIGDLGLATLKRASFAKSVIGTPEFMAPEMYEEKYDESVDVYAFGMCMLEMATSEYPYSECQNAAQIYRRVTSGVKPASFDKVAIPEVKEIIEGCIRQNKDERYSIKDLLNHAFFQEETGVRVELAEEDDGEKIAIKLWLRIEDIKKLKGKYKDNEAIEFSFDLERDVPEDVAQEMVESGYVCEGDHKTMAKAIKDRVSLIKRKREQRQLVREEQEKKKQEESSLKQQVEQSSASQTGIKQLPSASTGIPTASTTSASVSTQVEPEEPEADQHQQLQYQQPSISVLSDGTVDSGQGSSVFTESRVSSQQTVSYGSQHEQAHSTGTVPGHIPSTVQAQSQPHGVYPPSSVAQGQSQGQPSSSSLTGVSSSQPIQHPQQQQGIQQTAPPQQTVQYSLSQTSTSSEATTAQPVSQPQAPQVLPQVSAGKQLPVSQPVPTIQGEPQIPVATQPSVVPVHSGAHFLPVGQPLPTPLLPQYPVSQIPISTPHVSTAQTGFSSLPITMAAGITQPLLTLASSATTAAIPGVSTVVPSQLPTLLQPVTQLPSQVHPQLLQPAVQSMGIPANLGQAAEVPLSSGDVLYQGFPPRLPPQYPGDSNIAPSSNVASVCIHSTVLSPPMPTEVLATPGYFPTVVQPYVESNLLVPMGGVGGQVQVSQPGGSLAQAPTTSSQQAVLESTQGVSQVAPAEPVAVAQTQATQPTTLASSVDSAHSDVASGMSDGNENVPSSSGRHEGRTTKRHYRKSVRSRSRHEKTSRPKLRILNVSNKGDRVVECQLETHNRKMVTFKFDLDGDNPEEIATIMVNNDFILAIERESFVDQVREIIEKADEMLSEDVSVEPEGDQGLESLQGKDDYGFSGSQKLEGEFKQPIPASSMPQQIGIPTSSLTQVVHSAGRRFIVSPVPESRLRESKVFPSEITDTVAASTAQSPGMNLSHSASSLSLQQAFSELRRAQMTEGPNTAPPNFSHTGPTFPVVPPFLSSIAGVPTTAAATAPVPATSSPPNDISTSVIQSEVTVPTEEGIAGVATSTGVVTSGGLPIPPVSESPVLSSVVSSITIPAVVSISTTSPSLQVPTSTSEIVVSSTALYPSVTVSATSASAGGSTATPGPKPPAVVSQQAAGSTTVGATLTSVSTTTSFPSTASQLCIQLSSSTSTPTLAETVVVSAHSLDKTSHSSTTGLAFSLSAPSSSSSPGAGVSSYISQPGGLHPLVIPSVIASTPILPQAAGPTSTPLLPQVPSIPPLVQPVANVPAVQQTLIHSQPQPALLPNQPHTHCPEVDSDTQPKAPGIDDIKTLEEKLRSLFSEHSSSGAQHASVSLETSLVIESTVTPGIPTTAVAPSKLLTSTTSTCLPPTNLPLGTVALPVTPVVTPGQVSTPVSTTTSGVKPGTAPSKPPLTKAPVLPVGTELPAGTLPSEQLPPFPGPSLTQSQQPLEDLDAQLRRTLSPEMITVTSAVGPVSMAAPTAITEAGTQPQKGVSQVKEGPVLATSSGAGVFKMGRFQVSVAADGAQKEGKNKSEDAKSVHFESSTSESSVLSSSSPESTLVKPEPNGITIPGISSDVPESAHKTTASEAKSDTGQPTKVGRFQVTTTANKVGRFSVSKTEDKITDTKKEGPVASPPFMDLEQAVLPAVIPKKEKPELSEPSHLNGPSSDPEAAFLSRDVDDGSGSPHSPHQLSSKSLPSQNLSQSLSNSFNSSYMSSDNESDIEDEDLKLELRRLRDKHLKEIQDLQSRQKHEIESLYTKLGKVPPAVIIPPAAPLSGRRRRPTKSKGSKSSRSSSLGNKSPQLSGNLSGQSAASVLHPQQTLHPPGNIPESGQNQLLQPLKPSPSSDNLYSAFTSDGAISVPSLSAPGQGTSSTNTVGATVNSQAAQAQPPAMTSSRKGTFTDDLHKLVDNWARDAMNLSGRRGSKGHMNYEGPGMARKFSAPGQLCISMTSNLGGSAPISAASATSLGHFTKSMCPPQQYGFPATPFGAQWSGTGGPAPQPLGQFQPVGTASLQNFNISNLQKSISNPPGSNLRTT
T4 sequence (Q9UPE1 whole entry): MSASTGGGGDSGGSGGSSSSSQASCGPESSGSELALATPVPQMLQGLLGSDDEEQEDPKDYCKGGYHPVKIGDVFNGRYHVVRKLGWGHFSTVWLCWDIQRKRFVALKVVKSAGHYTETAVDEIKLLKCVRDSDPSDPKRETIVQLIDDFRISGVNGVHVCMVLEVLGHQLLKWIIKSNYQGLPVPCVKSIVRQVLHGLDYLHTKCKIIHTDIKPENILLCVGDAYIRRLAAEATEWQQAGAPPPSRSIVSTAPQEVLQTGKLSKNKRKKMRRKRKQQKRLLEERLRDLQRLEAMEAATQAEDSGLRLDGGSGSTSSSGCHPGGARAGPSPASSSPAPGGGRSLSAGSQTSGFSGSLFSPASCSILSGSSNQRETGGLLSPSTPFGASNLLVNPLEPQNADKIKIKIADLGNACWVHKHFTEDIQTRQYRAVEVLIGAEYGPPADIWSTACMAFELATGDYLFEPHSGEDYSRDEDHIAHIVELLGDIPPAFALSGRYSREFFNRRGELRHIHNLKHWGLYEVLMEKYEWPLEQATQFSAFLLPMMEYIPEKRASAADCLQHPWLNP
T2 sequence (Q13233 whole entry): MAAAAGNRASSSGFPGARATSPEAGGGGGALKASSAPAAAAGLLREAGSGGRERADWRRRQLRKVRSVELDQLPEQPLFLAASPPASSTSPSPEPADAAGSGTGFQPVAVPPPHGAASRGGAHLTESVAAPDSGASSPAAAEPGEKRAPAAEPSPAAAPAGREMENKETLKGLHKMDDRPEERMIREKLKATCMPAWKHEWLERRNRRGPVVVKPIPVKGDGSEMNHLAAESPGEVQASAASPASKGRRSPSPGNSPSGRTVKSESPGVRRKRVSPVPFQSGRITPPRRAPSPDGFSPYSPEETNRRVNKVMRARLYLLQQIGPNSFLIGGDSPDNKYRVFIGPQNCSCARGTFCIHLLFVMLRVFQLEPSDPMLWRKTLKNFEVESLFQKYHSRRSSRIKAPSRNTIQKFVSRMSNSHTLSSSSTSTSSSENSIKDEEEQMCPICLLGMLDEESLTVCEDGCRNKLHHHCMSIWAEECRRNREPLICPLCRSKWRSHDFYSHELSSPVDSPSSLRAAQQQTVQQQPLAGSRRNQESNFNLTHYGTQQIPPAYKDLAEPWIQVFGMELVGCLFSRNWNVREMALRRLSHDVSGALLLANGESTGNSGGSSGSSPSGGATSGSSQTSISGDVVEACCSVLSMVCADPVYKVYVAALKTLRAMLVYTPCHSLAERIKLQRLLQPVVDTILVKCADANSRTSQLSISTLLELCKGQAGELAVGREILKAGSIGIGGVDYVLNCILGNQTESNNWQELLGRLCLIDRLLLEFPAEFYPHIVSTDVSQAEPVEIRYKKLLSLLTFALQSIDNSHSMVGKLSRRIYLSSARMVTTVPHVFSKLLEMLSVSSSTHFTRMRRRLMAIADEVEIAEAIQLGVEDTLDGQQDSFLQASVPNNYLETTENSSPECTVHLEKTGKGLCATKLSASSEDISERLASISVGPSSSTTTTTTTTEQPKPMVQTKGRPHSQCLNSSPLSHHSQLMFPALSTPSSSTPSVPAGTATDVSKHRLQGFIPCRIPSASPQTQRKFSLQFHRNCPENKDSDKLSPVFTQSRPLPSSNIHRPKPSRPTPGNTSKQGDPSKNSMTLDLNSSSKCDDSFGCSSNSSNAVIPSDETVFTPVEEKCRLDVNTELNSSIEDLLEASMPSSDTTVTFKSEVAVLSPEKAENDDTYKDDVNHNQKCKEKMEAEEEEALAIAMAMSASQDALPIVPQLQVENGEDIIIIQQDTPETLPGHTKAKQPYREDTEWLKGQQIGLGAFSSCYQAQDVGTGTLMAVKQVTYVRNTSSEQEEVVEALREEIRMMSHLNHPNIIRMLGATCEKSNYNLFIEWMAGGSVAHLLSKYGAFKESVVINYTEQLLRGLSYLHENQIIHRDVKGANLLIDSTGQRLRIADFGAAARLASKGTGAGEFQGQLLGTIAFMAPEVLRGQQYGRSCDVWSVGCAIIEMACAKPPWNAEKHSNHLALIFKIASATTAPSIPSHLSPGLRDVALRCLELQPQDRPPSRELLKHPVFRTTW

| Structure (SMILES) | residual kinase activity ([1]; 0.03 µM) | residual kinase activity ([1]; 0.3 µM) | residual kinase activity ([2]; 0.03 µM) | residual kinase activity ([2]; 0.3 µM) | residual kinase activity ([3]; 0.03 µM) | residual kinase activity ([3]; 0.3 µM) | residual kinase activity ([4]; 0.03 µM) | residual kinase activity ([4]; 0.3 µM) | residual kinase activity ([5]; 0.03 µM) | residual kinase activity ([5]; 0.3 µM) | residual kinase activity ([6]; 0.03 µM) | residual kinase activity ([6]; 0.3 µM) | residual kinase activity ([1]; 3 µM) | residual kinase activity ([2]; 3 µM) | residual kinase activity ([3]; 3 µM) | residual kinase activity ([4]; 3 µM) | residual kinase activity ([5]; 3 µM) | residual kinase activity ([6]; 3 µM) |
| --- | --- | --- | --- | --- | --- | --- | --- | --- | --- | --- | --- | --- | --- | --- | --- | --- | --- | --- |
| COc1ccnc2[nH]cc(-c3cc(N)nc(N)c3)c12 [meriolin 16] | 101 % of control | 100 % of control | 105 % of control | 106 % of control | 95 % of control | 90 % of control | 109 % of control | 78 % of control | 97 % of control | 86 % of control | 102 % of control | 94 % of control |  |  |  |  |  |  |
| c1ccc(CNc2cc(-c3c[nH]c4ncccc34)ccn2)cc1 [meriolin 36] |  | 107 % of control |  | 94 % of control |  | 69 % of control |  | 95 % of control |  | 69 % of control |  | 111 % of control | 98 % of control | 93 % of control | 80 % of control | 88 % of control | 36 % of control | 103 % of control |
